Source: ChEMBL document CHEMBL3885861, “Open TG-GATES”

Species: Rattus norvegicus
Assay: Open TG-GATES - Regimen: Daily Repeat
Assay type: toxicity, organism-based, Sprague-Dawley
Set-up: regimen Daily Repeat, gender Male, age 6 weeks
Conditions: in vivo, po, route gavage; for TP / gamma-GTP / ALP / ALT / AST / BUN / CRE / DBIL / GLC / IP / K / LDH / Na / PL / RALB / TBIL / TC / TG: tissue Plasma; for APTT / Bas / Eos / Fbg / Ht / Lym / MCH / MCHC / MCV / Mono / Neu / Plat / RBC / Ret / WBC: tissue Blood
[1] = 45 mg/kg, […], dose level Low, time 28 day
[2] = 150 mg/kg, 72 h, dose level Middle, time 3 day
[3] = 150 mg/kg, […], dose level Middle, time 7 day
[4] = 150 mg/kg, […], dose level Middle, time 14 day
[5] = 150 mg/kg, […], dose level Middle, time 28 day
[6] = 450 mg/kg, 72 h, dose level High, time 3 day
[7] = 450 mg/kg, […], dose level High, time 7 day
[8] = 450 mg/kg, […], dose level High, time 14 day
[9] = 450 mg/kg, […], dose level High, time 28 day

CCCC(CCC)C(=O)O [VALPROIC ACID]
TP [1]: 5.9 g/dL | gamma-GTP [1]: 0.6 IU/L | TERMINAL_BW [2]: 227 g | APTT [2]: 19.8 s | Bas [2]: 0% | Eos [2]: 1% | Fbg [2]: 219.8 mg/dL | Ht [2]: 38.6% | Lym [2]: 78% | MCH [2]: 21.6 pg | MCHC [2]: 34.3% | MCV [2]: 62.9 fL | Mono [2]: 3.8% | Neu [2]: 17% | Plat [2]: 140.1 x10_4/uL | RBC [2]: 614.2 x10_4/ul | Ret [2]: 6.8% | WBC [2]: 106.9 x10_2/uL | ALP [2]: 920.6 IU/L | ALT [2]: 40 IU/L | AST [2]: 73.6 IU/L | BUN [2]: 16.2 mg/dL | CRE [2]: 0.4 mg/dL | DBIL [2]: 0.074 mg/dL | GLC [2]: 211.4 mg/dL | IP [2]: 7.9 mg/dL | K [2]: 3.8 meq/L | LDH [2]: 179.2 IU/L | Na [2]: 141.4 meq/L | PL [2]: 148.6 mg/dL | RALB [2]: 3.3 g/dL | TBIL [2]: 0.1 mg/dL | TC [2]: 76.8 mg/dL | TG [2]: 73 mg/dL | TP [2]: 5.4 g/dL | gamma-GTP [2]: 1.2 IU/L | TERMINAL_BW [3]: 255.5 g | TERMINAL_BW [4]: 311.1 g | TERMINAL_BW [5]: 400.1 g | APTT [3]: 19.5 s | Bas [3]: 0% | Eos [3]: 1.2% | Fbg [3]: 219.6 mg/dL | Ht [3]: 40.1% | Lym [3]: 81% | MCH [3]: 20.8 pg | MCHC [3]: 33.9% | MCV [3]: 61.3 fL | Mono [3]: 3.4% | Plat [3]: 129.5 x10_4/uL | RBC [3]: 655 x10_4/ul | Ret [3]: 5.7% | WBC [3]: 106 x10_2/uL | APTT [4]: 18.7 s | Bas [4]: 0% | Eos [4]: 1% | Fbg [4]: 216.8 mg/dL | Ht [4]: 42.3% | Lym [4]: 83.2% | MCH [4]: 20.6 pg | MCHC [4]: 35% | MCV [4]: 58.9 fL | Mono [4]: 2.6% | Neu [4]: 13.2% | Plat [4]: 108.8 x10_4/uL | RBC [4]: 720 x10_4/ul | Ret [4]: 4% | WBC [4]: 93.8 x10_2/uL | APTT [5]: 19.7 s | Bas [5]: 0% | Eos [5]: 1.4% | Fbg [5]: 214.2 mg/dL | Ht [5]: 42.1% | Lym [5]: 83.2% | MCH [5]: 19 pg | MCHC [5]: 35.2% | MCV [5]: 53.9 fL | Mono [5]: 2.6% | Neu [5]: 12.4% | Plat [5]: 116.1 x10_4/uL | RBC [5]: 781.6 x10_4/ul | Ret [5]: 2.3% | WBC [5]: 89.2 x10_2/uL | ALP [3]: 816 IU/L | ALT [3]: 29.8 IU/L | AST [3]: 59.2 IU/L | BUN [3]: 15.4 mg/dL | CRE [3]: 0.4 mg/dL | DBIL [3]: 0.078 mg/dL | GLC [3]: 220.6 mg/dL | IP [3]: 7.2 mg/dL | K [3]: 3.7 meq/L | LDH [3]: 194.4 IU/L | Na [3]: 140.6 meq/L | RALB [3]: 3.4 g/dL | TBIL [3]: 0.1 mg/dL | TC [3]: 69.4 mg/dL | TG [3]: 109.4 mg/dL | TP [3]: 5.6 g/dL | gamma-GTP [3]: 1.4 IU/L | ALP [4]: 877.8 IU/L | ALT [4]: 34.4 IU/L | AST [4]: 64.2 IU/L | BUN [4]: 16.6 mg/dL | CRE [4]: 0.4 mg/dL | DBIL [4]: 0.082 mg/dL | GLC [4]: 218.2 mg/dL | IP [4]: 7.9 mg/dL | K [4]: 3.8 meq/L | LDH [4]: 176.8 IU/L | Na [4]: 140.4 meq/L | PL [4]: 153.2 mg/dL | RALB [4]: 3.4 g/dL | TBIL [4]: 0.1 mg/dL | TC [4]: 69.4 mg/dL | TG [4]: 123 mg/dL | TP [4]: 5.8 g/dL | gamma-GTP [4]: 0.8 IU/L | ALP [5]: 729.4 IU/L | ALT [5]: 35 IU/L | AST [5]: 65 IU/L | BUN [5]: 17.6 mg/dL | CRE [5]: 0.4 mg/dL | DBIL [5]: 0.1 mg/dL | GLC [5]: 208.2 mg/dL | IP [5]: 6.7 mg/dL | K [5]: 3.9 meq/L | LDH [5]: 178.4 IU/L | Na [5]: 141 meq/L | PL [5]: 142.4 mg/dL | RALB [5]: 3.5 g/dL | TBIL [5]: 0.2 mg/dL | TC [5]: 66.6 mg/dL | TG [5]: 130.4 mg/dL | TP [5]: 6.1 g/dL | gamma-GTP [5]: 0.6 IU/L | TERMINAL_BW [6]: 225.2 g | APTT [6]: 19.4 s | Bas [6]: 0% | Eos [6]: 1% | Fbg [6]: 213.4 mg/dL | Ht [6]: 38.5% | Lym [6]: 79.2% | MCH [6]: 21.5 pg | MCHC [6]: 34.4% | MCV [6]: 62.4 fL | Mono [6]: 2.8% | Neu [6]: 16.4% | Plat [6]: 131.5 x10_4/uL | RBC [6]: 618.2 x10_4/ul | Ret [6]: 5.1% | WBC [6]: 85.9 x10_2/uL | ALP [6]: 765 IU/L | ALT [6]: 31.2 IU/L | AST [6]: 64.8 IU/L | BUN [6]: 14.6 mg/dL | CRE [6]: 0.4 mg/dL | DBIL [6]: 0.07 mg/dL | GLC [6]: 201.8 mg/dL | IP [6]: 7.9 mg/dL | K [6]: 3.7 meq/L | LDH [6]: 197.2 IU/L | Na [6]: 141.8 meq/L | PL [6]: 136 mg/dL | RALB [6]: 3.4 g/dL | TBIL [6]: 0.1 mg/dL | TC [6]: 67.2 mg/dL | TG [6]: 64.8 mg/dL | TP [6]: 5.5 g/dL | gamma-GTP [6]: 1.2 IU/L | TERMINAL_BW [7]: 257.7 g | TERMINAL_BW [8]: 310.7 g | TERMINAL_BW [9]: 375.7 g | APTT [7]: 19.5 s | Bas [7]: 0% | Eos [7]: 0.8% | Fbg [7]: 209.8 mg/dL | Ht [7]: 39.4% | Lym [7]: 78.8% | MCH [7]: 21.1 pg | MCHC [7]: 34.2% | MCV [7]: 61.7 fL | Mono [7]: 4.2% | Plat [7]: 114.2 x10_4/uL | RBC [7]: 639.6 x10_4/ul | Ret [7]: 6% | WBC [7]: 111.1 x10_2/uL | APTT [8]: 18.5 s | Bas [8]: 0% | Eos [8]: 0.8% | Fbg [8]: 226.2 mg/dL | Ht [8]: 41.6% | Lym [8]: 84% | MCH [8]: 20.2 pg | MCHC [8]: 34.6% | MCV [8]: 58.4 fL | Mono [8]: 3.6% | Neu [8]: 10.6% | Plat [8]: 116.8 x10_4/uL | RBC [8]: 712.6 x10_4/ul | Ret [8]: 4.7% | WBC [8]: 84.9 x10_2/uL | APTT [9]: 20.4 s | Bas [9]: 0% | Eos [9]: 1% | Fbg [9]: 201 mg/dL | Ht [9]: 41.7% | Lym [9]: 85% | MCH [9]: 19.1 pg | MCHC [9]: 34.7% | MCV [9]: 55.1 fL | Mono [9]: 3% | Neu [9]: 10% | Plat [9]: 101.4 x10_4/uL | RBC [9]: 757 x10_4/ul | Ret [9]: 2.4% | WBC [9]: 78.5 x10_2/uL | ALP [7]: 901.6 IU/L | ALT [7]: 35.2 IU/L | AST [7]: 65.6 IU/L | BUN [7]: 16.2 mg/dL | CRE [7]: 0.4 mg/dL | DBIL [7]: 0.082 mg/dL | GLC [7]: 217.6 mg/dL | IP [7]: 7.5 mg/dL | K [7]: 3.9 meq/L | LDH [7]: 204.2 IU/L | Na [7]: 139.4 meq/L | PL [7]: 132.8 mg/dL | RALB [7]: 3.3 g/dL | TBIL [7]: 0.1 mg/dL | TC [7]: 62 mg/dL | TG [7]: 94.4 mg/dL | TP [7]: 5.6 g/dL | gamma-GTP [7]: 1.4 IU/L | ALP [8]: 786 IU/L | ALT [8]: 33 IU/L | AST [8]: 64.6 IU/L | BUN [8]: 17 mg/dL | CRE [8]: 0.4 mg/dL | DBIL [8]: 0.086 mg/dL | GLC [8]: 207.6 mg/dL | IP [8]: 6.9 mg/dL | K [8]: 3.7 meq/L | LDH [8]: 189.2 IU/L | Na [8]: 140.2 meq/L | PL [8]: 140.4 mg/dL | RALB [8]: 3.4 g/dL | TBIL [8]: 0.1 mg/dL | TC [8]: 65 mg/dL | TG [8]: 101 mg/dL | TP [8]: 5.7 g/dL | gamma-GTP [8]: 1.6 IU/L | ALP [9]: 583.2 IU/L | ALT [9]: 29.2 IU/L | AST [9]: 62.8 IU/L | BUN [9]: 17.8 mg/dL | CRE [9]: 0.5 mg/dL | DBIL [9]: 0.078 mg/dL | GLC [9]: 198.8 mg/dL | IP [9]: 5.9 mg/dL | K [9]: 3.9 meq/L | LDH [9]: 209.8 IU/L | Na [9]: 140.4 meq/L | PL [9]: 126.6 mg/dL | RALB [9]: 3.4 g/dL | TBIL [9]: 0.1 mg/dL | TC [9]: 55.4 mg/dL | TG [9]: 98.4 mg/dL | TP [9]: 5.7 g/dL | gamma-GTP [9]: 1 IU/L
